The text below walks through data of US7132258B1, “Nucleic acid encoding vitamin D receptor related polypeptide” (University of Massachusetts, priority 1998, dated 2006).

For assay [1], the target named is T1, Gal4 DBD fusion of the LBD of hRARα (Homo sapiens, UniProt P10276).
T1 construct: Gal4 DBD fusion of the LBD of hRARα (Gal-RAR); expressed in transfected cells; host or cells: A549 human lung carcinoma cells
The assay can be described thus: Coactivation of Gal-RAR on Gal4-tk-Luc reporter in A549 cells. The following applies: overexpression of RAC3, 100 nM atRA, 24 hours. In kind it is cell-based. How it is done: Monkey kidney-derived CV-1 cells and human lung carcinoma A549 cells were grown in phenol-free DMEM medium supplemented with 10% charcoal-stripped fetal bovine serum (Gibco). One day before transfection, cells were seeded in 12-well plates at a density of 50,000 cells per well. A mixture of DNAs was prepared that contained 0.5 μg of expression vector, 0.5 μg of pCMX-βGal used as internal control for transfection efficiency, 1 μg of luciferase reporter, and 1.5 μg of carrier DNA (PGEM) in a final volume of 30 μl. The DNA solution was mixed dropwise with one volume of 0.5 M CaCl2 and two volumes of 2×BBS (50 mM N,N-bis(2-hydroxyethyl)-2-aminoethanesulfonic acid (BES; Calbiochem), 280 mM NaCl, 1.5 mM Na2HPO4, pH 6.95). DNA precipitates were allowed to form at room temperature for 10 minutes and applied evenly to the cell cultures. Cells were allowed to transfect for 12 hours, then the precipitates were removed by washing transfected cells twice with phosphate buffered saline (PBS). […]
Luciferase and β-galactosidase assays were used to analyze the cultures. […] The luciferase activities were determined with MLX microtiter plate luminometer (Dynex) using 100 μl of assay solution (0.1 M KPO4, 5 mM ATP, 10 mM MgCl2) and 100 μl of luciferin solution (0.01 M D-luciferin in 0.1 M KPO4, pH 7.8). […]

Assay [2] concerns histone. The assay can be described thus: Histone acetyltransferase (HAT) activity. Type of assay: biochemical. The following applies: compared with the p/CAF; unpublished data.
Assay [3] deals with CBP. The assay can be described thus: Far-Western analysis of interaction with GST-CBP fusions. In kind it is binding. The following applies: 35S-labeled full-length RAC3. How it is done: GST fusion proteins were overexpressed and purified from DH5α cells on glutathione agarose beads. The fusion proteins were separated on denaturing protein gels (SDS-PAGE) and electroblotted onto nitrocellulose filters in a transfer buffer (25 mM Tris-HCl, pH 8.3; 192 mM glycine; 0.01% SDS). After denaturation in 6 M guanidine hydrochloride (GnHCl), the proteins were renatured by stepwise dilution of GnHCl to 0.187 M in HB buffer (25 mM Hepes, pH 7.7; 25 mM NaCl; 5 mM MgC12; 1 mM DTT). The filters were then saturated with blocking buffer (5% non-fat milk, then 1% milk in HB buffer plus 0.05% NP40) at 4° C. overnight. In vitro translated 35S-labeled proteins were generated in reticulocyte lysate (Promega) and were diluted into a hybridization buffer (20 mM Hepes, pH 7.7; 75 mM KCl; 0.1 mM EDTA; 2.5 mM MgC12; 0.05% NP40; 1% milk; 1 mM DTT). […] The bound 35S-labeled proteins were detected by autoradiography.
Since SRC-1 can interact with the general transcriptional coactivator CBP and p300 (Yao, T. P., et al. (1996) Proc Natl Acad Sci USA 93, 10626–31.), it was determined whether RAC3 can also interact with CBP by far-Western analyses. Serial GST-CBP fusions covering the SRC-1 interacting domain were analyzed for interactions with ^35S-labeled full-length RAC3, SRC-1 and RAC3-AD (FIGS. 3A, B and C). […]

T1 sequence (P10276 183-417 limits assumed): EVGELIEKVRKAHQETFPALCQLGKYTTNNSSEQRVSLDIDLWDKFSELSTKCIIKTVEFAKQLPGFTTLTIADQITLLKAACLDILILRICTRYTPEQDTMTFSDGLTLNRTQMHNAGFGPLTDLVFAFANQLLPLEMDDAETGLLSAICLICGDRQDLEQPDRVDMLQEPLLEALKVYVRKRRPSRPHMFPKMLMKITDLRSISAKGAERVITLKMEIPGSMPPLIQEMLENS
T1 sequence (Q9Y6Q9 with tags, fused parts or gaps isoform Q9Y6Q9-5 D131E/G132A/T187P/E704Q/DEL1268-1272 partner): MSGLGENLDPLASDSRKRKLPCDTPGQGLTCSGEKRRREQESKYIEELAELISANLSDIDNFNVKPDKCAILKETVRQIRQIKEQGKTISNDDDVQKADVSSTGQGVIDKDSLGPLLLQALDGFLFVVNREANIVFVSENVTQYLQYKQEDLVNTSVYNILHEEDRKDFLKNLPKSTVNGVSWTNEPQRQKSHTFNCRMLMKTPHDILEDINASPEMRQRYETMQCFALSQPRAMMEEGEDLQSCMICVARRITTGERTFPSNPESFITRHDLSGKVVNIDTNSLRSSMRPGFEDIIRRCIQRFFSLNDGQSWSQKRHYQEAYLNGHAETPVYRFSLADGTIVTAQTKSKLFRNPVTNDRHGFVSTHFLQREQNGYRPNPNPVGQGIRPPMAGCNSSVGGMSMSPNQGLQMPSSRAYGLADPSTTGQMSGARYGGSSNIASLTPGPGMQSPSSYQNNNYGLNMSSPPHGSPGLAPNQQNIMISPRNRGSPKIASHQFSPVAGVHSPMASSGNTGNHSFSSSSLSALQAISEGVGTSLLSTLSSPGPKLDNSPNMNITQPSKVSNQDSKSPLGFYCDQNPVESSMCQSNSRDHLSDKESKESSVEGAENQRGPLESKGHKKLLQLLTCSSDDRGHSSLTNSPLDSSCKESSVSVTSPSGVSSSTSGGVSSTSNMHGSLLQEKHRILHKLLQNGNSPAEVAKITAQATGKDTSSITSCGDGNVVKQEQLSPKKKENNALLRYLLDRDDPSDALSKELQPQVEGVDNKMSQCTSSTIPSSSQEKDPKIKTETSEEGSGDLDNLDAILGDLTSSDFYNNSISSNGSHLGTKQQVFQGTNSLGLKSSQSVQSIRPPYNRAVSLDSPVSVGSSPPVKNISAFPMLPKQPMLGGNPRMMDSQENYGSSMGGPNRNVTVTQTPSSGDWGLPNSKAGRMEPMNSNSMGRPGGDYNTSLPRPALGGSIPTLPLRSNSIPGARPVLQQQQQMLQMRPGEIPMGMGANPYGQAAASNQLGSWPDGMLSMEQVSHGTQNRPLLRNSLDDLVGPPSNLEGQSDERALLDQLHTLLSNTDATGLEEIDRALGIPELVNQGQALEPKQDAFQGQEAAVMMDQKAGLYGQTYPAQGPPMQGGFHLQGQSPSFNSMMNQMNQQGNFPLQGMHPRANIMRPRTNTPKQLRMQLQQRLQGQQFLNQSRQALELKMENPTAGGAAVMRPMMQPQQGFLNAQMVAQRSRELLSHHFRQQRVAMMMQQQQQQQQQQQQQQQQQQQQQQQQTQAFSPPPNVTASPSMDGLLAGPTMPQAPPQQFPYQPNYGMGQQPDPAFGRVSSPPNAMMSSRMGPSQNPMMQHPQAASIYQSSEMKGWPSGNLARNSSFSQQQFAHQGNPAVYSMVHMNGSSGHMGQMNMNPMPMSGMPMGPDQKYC

On to “RAC3: transcriptional coactivator of steroid/nuclear receptors, protein of about 1417 amino acids (SEQ ID NO:2); RAC3.1 is the two-hybrid clone, amino acids 401–1204”, for which, in assay [1], the “enhancement of ligand-dependent transcriptional activation by Gal4 DBD fusion of RAR” value is on record as “about two-fold”. Moreover, in assay [2], the HAT activity entry was “very weakly”. Also, the “interaction with CBP fragments C and D” value in assay [3] is listed as “interacts strongly”.
